# Where two headings read alike, the source gives them in different places.
# What was measured:
# [1] = target: T1, Urease collected and purified from sword beans (Canavalia gladiata) (Canavalia gladiata, UniProt A0AAN9R4W0); assay: Determination of the urease inhibitory action; format: biochemical; conditions: read-out: 50% inhibitory concentration (M) of urease <I50>
# T1 construct: single-chain plant urease, homohexamer by analogy with jack bean urease
# Method: (i) Determination of the urease inhibitory action
# Urease was collected and purified from sword beans (Canavalia gladiata) and mol concentrations of the examination compounds for inhibiting 50% of the activity of the urease were measured by the method of Kobashi et al [Refer to Biochim. Biophys. acta 227, 429-441 (1971)].
# [2] = Determination of the transfer rate into the urine and calculation of the index; format: in vivo, male rats of SD strain; conditions: rat, male SD rats, 100 mg/Kg oral, measured as urease inhibitory action in excreted urine; for dose excreted at 6 h: 0-6 hours; for dose excreted at 24 h: 6-24 hours
# Method: (ii) Determination of the transfer rate into the urine
# Transfer rates into the urine of the examination compounds were determined according to the method of Kobashi et al [Refer to Biochemistry (Japan) vol. 44, No. 5, pp. 187-204 (1972) and Yakugaku Zasshi vol. 12, pp. 1564-1572 (1973)] by using the male rats of SD strain having the body weight of about 280 g, administering orally each 100 mg/Kg of the compounds, and measuring the urease inhibitory action in the excreted urine within a specified period of time.
# (iii) Calculation of the index
# The index was calculated from the resulting values of the above examinations (i) and (ii) according to the following equation: [formula] wherein n is chosen appropriately depending on the value of I50.
# The value of the index is referred to as a standard of the urease inhibitory power of the administered examination compound in the urine.
# It is seen that the larger the value of the index is, the more effectively the examination compounds transfer into the urine with a form having the urease inhibitory action. Results of the determination
# Proteus mirabilis OM-1 [3] = assay: Arrestment action to alkalization of the urine; format: cell-based; conditions: normal human urine inoculated with Proteus mirabilis OM-1, 37° C.
# Method: (§1) Solutions to be examined were prepared by collecting each 18 ml of fresh urine from a normal human, and adding the respective examination compounds to each of the urine to make their concentration of 10^-3 M in one group, and of 2×10^-4 in the other group. On the other hand, same solutions containing no examination compounds were prepared as blanks.
# Proteus mirabilis OM-1, a urease-producing bacterium, was inoculated in said solutions, so that the number of the bacteria may amount to 10^6 cell/ml, and cultured at 37° C. […] The arrestment ratio of calculus formation was calculated from said values.
# Proteus mirabilis OM-1 [4] = assay: Arrestment action to the calculus formation in the urine; format: cell-based; conditions: OM1, human urine with Proteus mirabilis OM-1, 24 hours, read-out: Arrest ratio to calculus formation (%), 24 hours; for inhibition at 200 µM: 2×10^-4 M; for inhibition at 1000 µM: 10^-3 M
# Method: as §1
# Proteus mirabilis OM-1, a urease-producing bacterium, was inoculated in said solutions, so that the number of the bacteria may amount to 10^6 cell/ml, and cultured at 37° C. After […] and 24 hours of the culture time, pH values of the solutions and amounts by weight of the formed and deposited calculus were measured. The arrestment ratio of calculus formation was calculated from said values.
# [5] = Acute toxicity (LD50), oral; conditions: rat, in vivo
# Excerpt: The examination was achieved by orally administering the examination compounds into male rats of SD strain weighing about 230 g, respectively.
# [6] = Acute toxicity: observation of the general conditions; format: in vivo; conditions: for Number of death examples, Female / Number of death examples, Male: rat, in vivo
# Excerpt: (§2) Eight week-old rats of SD strain (body weight: about 230 g for male and about 160 g for female) were used as the subject animals. The examination compounds were forcedly and orally administered in the following dosages, wherein 14 rats (7 male rats and 7 female rats, respectively) were used.
# [7] = Acute toxicity: remarks on the dissection; format: in vivo, rats of SD strain; conditions: for Remarks on the dissection, death examples: macroscopic observation at the time of death; for Remarks on the dissection, survivor example: rat, in vivo
# Method: as §2
# The dissection was performed, for the death examples, at the time of death and, for the survivor example, after killing by discharging the blood when the observation of the general conditions was finished. The organs in the thoracic cavity and the abdominal cavity were closely observed with a macroscopic manner.
# [8] = Examination of urine (Labstix test paper, amount, pH); format: in vivo, male SD strain rats; parameters: key to Protein in urine, hours 0-6 / Protein in urine, hours 6-24 / Glucose in urine, hours 0-6 / Glucose in urine, hours 6-24 / Ketone substances in urine, hours 0-6 / Ketone substances in urine, hours 6-24 / Occult blood in urine, hours 0-6 / Occult blood in urine, hours 6-24: (-); (±); (+); (++); (+++); conditions: 100 mg/Kg oral, male SD rats; for Ketone substances in urine, hours 0-6 / Occult blood in urine, hours 0-6 / Protein in urine, hours 0-6 / Glucose in urine, hours 6-24 / Ketone substances in urine, hours 6-24 / Occult blood in urine, hours 6-24 / Protein in urine, hours 6-24 / Glucose in urine, hours 0-6: Labstix; for Ketone substances in urine, hours 0-6 / Occult blood in urine, hours 0-6 / Protein in urine, hours 0-6: 0-6 hours; for Glucose in urine, hours 6-24 / Ketone substances in urine, hours 6-24 / Occult blood in urine, hours 6-24 / Protein in urine, hours 6-24: 6-24 hours; for Glucose in urine, hours 0-6: first collection period; for Amount and pH value of the urine: compared with the group given no examination compound
# Method: To 5 male SD strain rats having the body weight of about 280 g in the respective groups, the examination compounds were forcedly and orally administered in a ratio of 100 mg/Kg in each time.
# Natural urinations were respectively recovered 6 hours and 6-24 hours from the administration. As for control group wherein no examination compound is administered, natural urination was similarly recovered. Amount and pH value of the recovered urine were measured. Further, qualitative reaction concerning the respective items of protein, glucose, ketone substances, and occult blood in the urine was carried out by using Labstix text paper (manufactured and sold by Ames Company). Judgement was ranked as five levels, that is, (-), (±), (+), (++) and (+++).
# Proteus mirabilis OM-1 [9] = assay: Arrestment action to the calculus formation in the urine; format: cell-based; conditions: OM1, human urine with Proteus mirabilis OM-1, 8 hours, read-out: Arrest ratio to calculus formation (%), 8 hours; for inhibition at 200 µM: 2×10^-4 M; for inhibition at 1000 µM: 10^-3 M
# [10] = single forced oral dose, SD rats, 7 male and 7 female per dose
# [11] = single forced oral dose, SD rats, all administration groups
# T1 sequence (A0AAN9R4W0 entry or part of it): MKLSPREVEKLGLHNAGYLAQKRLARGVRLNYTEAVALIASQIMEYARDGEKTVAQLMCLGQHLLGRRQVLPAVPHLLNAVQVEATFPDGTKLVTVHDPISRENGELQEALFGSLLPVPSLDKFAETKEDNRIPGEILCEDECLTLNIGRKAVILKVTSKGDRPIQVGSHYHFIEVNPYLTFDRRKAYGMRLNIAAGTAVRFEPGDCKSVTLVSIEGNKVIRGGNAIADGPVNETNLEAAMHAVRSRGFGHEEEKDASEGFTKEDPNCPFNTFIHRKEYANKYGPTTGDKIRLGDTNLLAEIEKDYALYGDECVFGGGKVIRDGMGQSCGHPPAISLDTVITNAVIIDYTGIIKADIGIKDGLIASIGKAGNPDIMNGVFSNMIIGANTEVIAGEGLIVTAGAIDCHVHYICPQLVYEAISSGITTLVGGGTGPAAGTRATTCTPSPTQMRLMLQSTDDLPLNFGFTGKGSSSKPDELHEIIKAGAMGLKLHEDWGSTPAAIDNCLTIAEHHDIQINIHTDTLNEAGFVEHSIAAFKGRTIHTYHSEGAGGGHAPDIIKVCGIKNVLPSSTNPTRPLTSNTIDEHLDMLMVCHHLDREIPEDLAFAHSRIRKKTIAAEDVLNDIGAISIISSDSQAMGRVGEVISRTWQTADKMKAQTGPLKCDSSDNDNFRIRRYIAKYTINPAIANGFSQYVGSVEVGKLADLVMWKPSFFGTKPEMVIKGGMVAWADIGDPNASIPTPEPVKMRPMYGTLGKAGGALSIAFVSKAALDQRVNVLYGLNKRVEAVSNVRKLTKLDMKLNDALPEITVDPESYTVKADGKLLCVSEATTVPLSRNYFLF
Structure (SMILES),IC50 [1],dose excreted at 6 h [2],dose excreted at 24 h [2],"pH value, time 8 hours (Proteus mirabilis OM-1 [3]; 2×10^-4 M)","pH value, time 24 hours (Proteus mirabilis OM-1 [3]; 2×10^-4 M)","pH value, time 0 hour (Proteus mirabilis OM-1 [3]; 10^-3 M)","pH value, time 8 hours (Proteus mirabilis OM-1 [3]; 10^-3 M)","pH value, time 24 hours (Proteus mirabilis OM-1 [3]; 10^-3 M)",inhibition at 200 µM (Proteus mirabilis OM-1 [4]),inhibition at 1000 µM (Proteus mirabilis OM-1 [4]),LD50 ([5]; po),"Number of death examples, Female [6]","Number of death examples, Male [6]","Symptom [6, 10]","Baited amount [6, 11]","Remarks on the dissection, death examples [7]","Remarks on the dissection, survivor example [7]","Ketone substances in urine, hours 0-6 [8]",inhibition at 200 µM (Proteus mirabilis OM-1 [9]),inhibition at 1000 µM (Proteus mirabilis OM-1 [9]),other results
"COc1ccc(C(=O)NCC(=O)NO)cc1 [Compound A, 2-(para-methoxy-benzamide)-acetohydroxamic acid]",1.7e-06 M,12%,0.83%,6.56±0.02,8.38±0.02,6.40±0.00,5.40±0.003,5.58±0.05,32 ± 3.4%,76.6 ± 6%,> 5000 mg/kg,0/7,1/7,No change,No change,Erosion was observed,No abnormality,-,99 ± 1%,96.2 ± 0.4%,"Behaviour [6, 10]: No change; Occult blood in urine, hours 0-6 [8]: -; Protein in urine, hours 0-6 [8]: +; Glucose in urine, hours 6-24 [8]: -; Ketone substances in urine, hours 6-24 [8]: -; Occult blood in urine, hours 6-24 [8]: -; Protein in urine, hours 6-24 [8]: ±; Glucose in urine, hours 0-6 [8]: -; Amount and pH value of the urine [8]: there was not found the difference"
"COc1cccc(C(=O)NCC(=O)NO)c1 [Compound B, 2-(meta-methoxy-benzamide)-acetohydroxamic acid]",1.2e-06 M,12.3%,1.5%,6.84±0.02,8.71±0.01,6.47±0.01,5.41±0.01,6.52±0.003,26.2 ± 5.7%,79.1 ± 8.2%,> 5000 mg/kg,3/7,2/7,Hair raising,No change,Erosion was observed,No abnormality,-,87.5 ± 1.6%,82 ± 9.2%,"pH value, time 0 hour (Proteus mirabilis OM-1 [3]; 2×10^-4 M): 6.45±0.01; Occult blood in urine, hours 0-6 [8]: -; Protein in urine, hours 0-6 [8]: +; Glucose in urine, hours 6-24 [8]: -; Ketone substances in urine, hours 6-24 [8]: -; Occult blood in urine, hours 6-24 [8]: -; Protein in urine, hours 6-24 [8]: ±; Glucose in urine, hours 0-6 [8]: -; Amount and pH value of the urine [8]: there was not found the difference"
"CC(=O)Nc1cccc(C(=O)NCC(=O)NO)c1 [Compound M, 2-(meta-acetylaminobenzamide)-acetohydroxamic acid]",2e-06 M,15%,0.6%,7.96±0.02,8.70±0.00,6.78±0.02,6.79±0.01,7.08±0.03,38.8 ± 8%,81.4 ± 5.6%,,,,,,,,,80.1 ± 6.7%,91.5 ± 5.1%,"LD50 ([5]; oral, male SD rats about 230 g): > 5000 mg/kg"
"O=C(CNC(=O)c1ccco1)NO [Compound R, 2-(2-furoilamino)-acetohydroxamic acid]",1.3e-06 M,15.5%,0.68%,6.65±0.02,8.52±0.01,6.46±0.00,5.42±0.01,6.98±0.02,28.4 ± 5.1%,72.3 ± 8.3%,,,,,,,,,85.6 ± 4.7%,84.1 ± 5.5%,"pH value, time 0 hour (Proteus mirabilis OM-1 [3]; 2×10^-4 M): 6.44±0.01; LD50 ([5]; oral, male SD rats about 230 g): > 5000 mg/kg"
"O=C(CNC(=O)c1ccc(Cl)cc1)NO [Control compound I, 2-(para-chloro-benzamide)-acetohydroxamic acid, reference compound]",1e-06 M,1%,0.5%,7.30±0.00,8.51±0.01,6.75±0.003,6.64±0.02,7.03±0.01,30.6 ± 13.9%,82.5 ± 8.5%,> 5000 mg/kg,0/7,3/7,arantic change,Decrease,Petechiae and ulcer,Blacking change and hypertrophy of spleen,++,77.2 ± 9.1%,69.7 ± 9%,"pH value, time 0 hour (Proteus mirabilis OM-1 [3]; 2×10^-4 M): 6.79±0.01; Body Weight decrease on average [6, 11]: 10%; Occult blood in urine, hours 0-6 [8]: -; Protein in urine, hours 0-6 [8]: ++; Glucose in urine, hours 6-24 [8]: +++; Ketone substances in urine, hours 6-24 [8]: +++; Occult blood in urine, hours 6-24 [8]: -; Protein in urine, hours 6-24 [8]: +++; Glucose in urine, hours 0-6 [8]: +++; Amount and pH value of the urine [8]: there was not found the difference"

# — US4157396A, “Hydroxamic acid derivatives and medicaments for treatment of urolithiasis and pyelonephrosis comprising such derivatives” (Eisai Co., Ltd., priority 1976, dated 1979)
